Reference: patent EP4644383A1 (Jiangsu Yahong Meditech Co., Ltd., priority 2022, dated 2024)
Like-named read-outs stand apart in the source and are kept apart here.

Tests used:
FGFR1 = target: T1, FGFR1 (Homo sapiens, UniProt P11362); test: FGFR1 kinase activity inhibition assay (LanthaScreen TR-FRET); type: biochemical
T1 construct: cytoplasmic domain [398-822 (terminal) amino acids]; purchased Carna 08-133
Method in brief: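 Emission ratio 520 nm/495 nm by TR-FRET after stopping reaction with 10 mM EDTA and 60 min incubation at 22°C. Inhibition normalized between no-enzyme (min) and DMSO (max) controls, then fitted to a four-parameter curve (Top, Bottom, HillSlope).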

FGFR3 = target: T2, FGFR3 (Homo sapiens, UniProt P22607); test: FGFR3 kinase activity inhibition assay (LanthaScreen TR-FRET); type: biochemical; settings: for Selectivity (X) FGFR1/FGFR3: ratio of IC50 FGFR1/FGFR3, selectivity towards FGFR3; for Selectivity (X) FGFR2/FGFR3: ratio of IC50 FGFR2/FGFR3, selectivity towards FGFR3; for Selectivity (X) FGFR4/FGFR3: ratio of IC50 FGFR4/FGFR3, selectivity towards FGFR3
T2 construct: FGFR3's cytoplasmic domain [436-806 (terminal) amino acids]; purchased Carna 08-135
Method in brief: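 Read-out is TR-FRET, with the 520 nm/495 nm emission ratio normalised to DMSO (max) and enzyme-free (min) controls. Enzyme was the FGFR3 cytoplasmic domain, residues 436-806. EDTA (10 mM) stopped the reaction, followed by 60 min at 22 °C before reading.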

[1] = test system: Ba/F3-FGFR3-BAIAP2L1 cells; test: Inhibition of proliferation activity of Ba/F3-FGFR3-BAIAP2L1 cells (CellTiter-Glo); type: cell-based; settings: for IC50: read-out: IC50 (nM) Ba/F3-FGFR3-BAIAP2L1; for Selectivity (X) FGFR1/FGFR3: ratio of IC50 Ba/F3-BCR-FGFR1 to IC50 Ba/F3-FGFR3-BAIAP2L1
Experimental: The present experiment used CellTiter-Glo® Luminescent Cell Viability Assay (Promega: G7573) kit, which was a homogeneous cell viability detection method and determined the cell viability of cultured cells by quantifying ATP. • ① Ba/F3-BCR-FGFR1 or Ba/F3-FGFR3-BAIAP2L1 cells were cultured in 1640 complete medium (Gibco: 11879020) (10% FBS (Gibco: 10091-148)+1% Pen Strep (Gibco: 15140122)) under the condition of 37°C and 5% CO2. • (2) The cells in logarithmic growth phase were harvested and counted using a […]. The trypan blue exclusion method was used to detect cell viability to ensure the cell viability was above 90%. • ③ The cell density was adjusted using 1640 complete medium, and then, the cells were seeded into a 96-well cell culture plate at 90 µL/well with a total of 2000 cells. • ④ A 10-fold drug solution was prepared starting from a maximum drug concentration of 10 µM and 4-fold serially diluted into10 concentrations. […] The luminescence values were read to collect the data. • ⑩ The data were analyzed using XLFit excel plugin version 5.5.0.5, and fitted with non-linear S-curve regression to obtain the dose-response curves and thus calculate the IC50 values. Y = Bottom + (Top-Bottom)/((1+(IC50/X))^(∧) HillSlope [formula]
(§1) "Top" refers to the maximum response, "Bottom" refers to the minimum response, and "HillSlope" refers to the slope of the curve.
"Max" represents the average value of the cell control+DMSO, and "Min" represents the average value of the medium control+DMSO.

RT112-FGFR3-V555M cells = test: Inhibition of proliferation activity of RT112-FGFR3-V555M cells (CellTiter-Glo); type: cell-based; settings: read-out: IC50 (nM) RT112-FGFR3-V555M
Experimental: The present experiment used CellTiter-Glo® Luminescent Cell Viability Assay (Promega: G7573) kit, which was a homogeneous cell viability detection method and determined the cell viability of cultured cells by quantifying ATP. • ① RT112-FGFR3-V555M cells were cultured in MEM complete medium (Gibco: 51200038) (10% FBS (Gibco: 10091-148)+1% Pen Strep (Gibco: 15140122)+1% NEAA (Gibco: 11140050)) under the condition of 37°C and 5% CO2. • (2) The cells in logarithmic growth phase were harvested and counted using a […]. The trypan blue exclusion method was used to detect cell viability to ensure the cell viability was above 90%. • ③ The cell density was adjusted using MEM complete medium, and then, the cells were seeded into a 96-well cell culture plate at 90 µL/well with a total of 5000 cells. • ④ The 96-well plate with the cells was placed under the condition of 37°C and 5% CO2 to be cultured for 24 hours. • ⑤ 24 hours later, a 10-fold drug solution was prepared starting from a maximum drug concentration of 10 µM and 4-fold serially diluted into10 concentrations. Then, 10 µL of each of the serially diluted compounds was transferred to the corresponding experimental wells of a 96-well cell plate, with two replicates for each drug concentration. • ⑥ The 96-well plate with the cells that had been treated with the drugs was placed under the condition of 37°C and 5% CO2 to be further cultured for 72 hours, and then analyzed by CTG. • ⑦ The CTG reagent was melted and the cell plate was equilibrated to room temperature for 30 minutes. • ⑧ 50 µL of the CTG solution was added to each well. • ⑨ The cell plate was shaken on an orbital shaker for 5 minutes to lyse the cells. • ⑩ The cell plate was placed at room temperature for 20 minutes to stabilize the luminescence signal. The luminescence values were read to collect the data. • ⑪ The data were analyzed using XLFit excel plugin version 5.5.0.5, and fitted with non-linear S-curve regression to obtain the dose-response curves and thus calculate the IC50 values. Y = Bottom + (Top-Bottom)/((1+(IC50/X))^(∧) HillSlope [formula]
as §1
"Max" represents the average value of the cell+DMSO control, and "Min" represents the average value of the medium control+DMSO.

[2] = FGFR1 kinase, TR-FRET, read-out: IC50 (nM) FGFR1
[3] = FGFR3 kinase, TR-FRET, read-out: IC50 (nM) FGFR3
[4] = Ba/F3-FGFR3-BAIAP2L1 cells, 72 hours, CTG
[5] = RT112-FGFR3-V555M cells, 72 hours, CTG

T1 sequence (P11362 398-822): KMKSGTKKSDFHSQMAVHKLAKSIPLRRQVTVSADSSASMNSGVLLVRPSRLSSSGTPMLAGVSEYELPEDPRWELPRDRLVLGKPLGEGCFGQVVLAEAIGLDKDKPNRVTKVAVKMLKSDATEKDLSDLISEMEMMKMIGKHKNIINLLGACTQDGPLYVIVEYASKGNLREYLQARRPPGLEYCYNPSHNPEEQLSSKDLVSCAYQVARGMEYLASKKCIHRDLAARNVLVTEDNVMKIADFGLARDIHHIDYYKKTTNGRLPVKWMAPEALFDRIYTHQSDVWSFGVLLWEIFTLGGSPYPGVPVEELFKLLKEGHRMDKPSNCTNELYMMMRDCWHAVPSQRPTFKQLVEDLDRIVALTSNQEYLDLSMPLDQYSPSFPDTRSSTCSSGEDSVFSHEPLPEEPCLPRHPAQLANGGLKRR
T2 sequence (P22607 436-806): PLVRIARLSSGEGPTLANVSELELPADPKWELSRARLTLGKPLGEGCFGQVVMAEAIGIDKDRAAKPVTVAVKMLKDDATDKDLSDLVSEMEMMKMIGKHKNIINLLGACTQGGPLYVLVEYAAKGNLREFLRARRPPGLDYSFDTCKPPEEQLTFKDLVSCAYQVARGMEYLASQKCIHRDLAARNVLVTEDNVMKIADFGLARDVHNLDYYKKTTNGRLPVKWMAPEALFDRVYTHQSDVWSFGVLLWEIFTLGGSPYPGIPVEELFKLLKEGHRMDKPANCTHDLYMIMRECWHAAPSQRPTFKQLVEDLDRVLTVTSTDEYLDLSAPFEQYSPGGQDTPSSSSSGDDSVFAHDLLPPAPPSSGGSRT

Row | Compound | IC50 (FGFR1; [2]) | IC50 (FGFR3; [3]) | Selectivity (X) FGFR1/FGFR3 (FGFR3) | IC50 [1, 4] | Selectivity (X) FGFR1/FGFR3 [1] | Selectivity (X) FGFR2/FGFR3 (FGFR3) | Selectivity (X) FGFR4/FGFR3 (FGFR3) | IC50 (RT112-FGFR3-V555M cells; [5]) | IC50 (FGFR1) | IC50 (FGFR3) | IC50 ([1]; 72 h) | IC50 (RT112-FGFR3-V555M cells; 72 h)
1 | CC(Oc1ccc2[nH]nc(-c3cnn(C)c3)c2c1)c1cccn2ncnc12 (stereo not drawn) [Example 101, 8-(1-((3-(1-methyl-1H-pyrazol-4-yl)-1H-indazol-5-yl)oxy)ethyl)-[1,2,4]triazolo[1,5-a]pyridine] | 10 to 100 nM | 1 to 10 nM | A (A represents 1 ≤ multiple X<20) | 10.6 nM | 23 X |  |  |  |  |  |  | 
2 | C[C@@H](Oc1ccc2[nH]nc(-c3cnn(CCN4CCS(=O)(=O)CC4)c3)c2n1)c1c(Cl)cncc1Cl [Example 55, (R)-4-(2-(4-(5-(1-(3,5-dichloropyridin-4-yl)ethoxy)-1H-pyrazolo[4,3-b]pyridin-3-yl)-1H-pyrazol-1-yl)ethyl)thiomorph oline 1,1-dioxide] | 10 to 100 nM | < 1 nM | A (A represents 1 ≤ multiple X<20) | 0.7 nM | 126 X |  |  |  |  |  |  | 
3 | COCC(=O)N1CC(n2cc(-c3n[nH]c4ccc(OC(C)c5cccc6nccnc56)cc34)cn2)C1 (stereo not drawn) [Example 188, 2-methoxy-1-(3-(4-(5-(1-(quinoxalin-5-yl)ethoxy)-1H-indazol-3-yl)-1H-pyrazol-1-yl)azetidin-1-yl)ethan-1-one] | 10 to 100 nM | < 1 nM | B (B represents 20 ≤ multiple X<50) | 3.1 nM | 91 X | A (A represents 1 ≤ multiple X<20) | B (B represents 20 ≤ multiple X<50) | 70.1 nM |  |  |  | 
4 | C[C@@H](Oc1ccc2[nH]nc(-c3cnn(C)c3)c2n1)c1c(Cl)cncc1Cl [Example 29, (R)-5-(1-(3,5-dichloropyridin-4-yl)ethoxy)-3-(1-methyl-1H-pyrazol-4-yl)-1H-pyrazolo[4,3-b]pyridine] | 1 to 10 nM | < 1 nM | A (A represents 1 ≤ multiple X<20) | 0.3 nM | 127 X | A (A represents 1 ≤ multiple X<20) | A (A represents 1 ≤ multiple X<20) |  |  |  |  | 
5 | CC(Oc1ccc2[nH]nc(-c3cnn(C4CN(C(=O)C(C)(C)O)C4)c3)c2c1)c1cccc2nccnc12 (stereo not drawn) [Example 190, 2-hydroxy-2-methyl-1-(3-(4-(5-(1-(quinoxalin-5-yl)ethoxy)-1H-indazol-3-yl)-1H-pyrazol-1-yl)azetidin-1-yl)propan-1-one] | 10 to 100 nM | < 1 nM | B (B represents 20 ≤ multiple X<50) | 3.8 nM | 113 X | A (A represents 1 ≤ multiple X<20) | B (B represents 20 ≤ multiple X<50) | 81.6 nM |  |  |  | 
6 | Cc1ccc2ncccc2c1C(C)Oc1ccc2[nH]nc(-c3cnn(C)c3)c2c1 (stereo not drawn) [Example 95, 6-methyl-5-(1-((3-(1-methyl-1H-pyrazol-4-yl)-1H-indazol-5-yl)oxy)ethyl)quinolinee] |  |  | C (C represents 50 ≤ multiple X<100) | 8 nM | 51 X | A (A represents 1 ≤ multiple X<20) | C (C represents 50 ≤ multiple X<100) | 110 nM | 10 to 100 nM | 1 to 10 nM |  | 
7 | CC(Oc1ccc2[nH]nc(-c3cnn(C)c3)c2c1)c1cccc2nccnc12 (stereo not drawn) [Example 92, 5-(1-((3-(1-methyl-1H-pyrazol-4-yl)-1H-indazol-5-yl)oxy)ethyl)quin oxaline] | 1 to 10 nM | < 1 nM | A (A represents 1 ≤ multiple X<20) | 2.8 nM | 35 X | A (A represents 1 ≤ multiple X<20) | A (A represents 1 ≤ multiple X<20) |  |  |  |  | 
8 | C[C@@H](Oc1ccc2[nH]nc(-c3ccc(S(C)(=N)=O)nc3)c2c1)c1c(Cl)cncc1Cl (stereo partly drawn) [Comparative Example 85, (5-(5-((R)-1-(3,5-dichloropyridin-4-yl)ethoxy)-1H-indazol-3-yl)pyridin-2-yl)(imino)(methyl)-sulfanone, reference compound] |  |  |  |  |  |  |  |  |  |  | 5.4 nM | 334 nM
9 | CC(Oc1ccc2[nH]nc(-c3cnn(C)c3)c2c1)c1cccc2ncccc12 (stereo not drawn) [Example 88, 5-(1-((3-(1-methyl-1H-pyrazol-4-yl)-1H-indazol-5-yl)oxy)ethyl)quin oline] | 10 to 100 nM | 1 to 10 nM | A (A represents 1 ≤ multiple X<20) | 19 nM | 180 X | A (A represents 1 ≤ multiple X<20) | C (C represents 50 ≤ multiple X<100) |  |  |  |  | 
10 | C[C@@H](Oc1cc(F)c2[nH]nc(-c3cnn(CCN4CCOCC4)c3)c2c1)c1c(Cl)cncc1Cl [Example 12, (R)-4-(2-(4-(5-(1-(3,5-dichloropyridin-4-yl)ethoxy)-7-fluoro-1H-indazol-3-yl)-1H-pyrazol-1-yl)ethyl)morph oline] | 10 to 100 nM | 1 to 10 nM | B (B represents 20 ≤ multiple X<50) | 4.6 nM | 129 X | A (A represents 1 ≤ multiple X<20) | C (C represents 50 ≤ multiple X<100) |  |  |  |  | 
11 | C[C@@H](Oc1ccc2[nH]nc(-c3cnn(CCN4CCN(C)C(=O)C4)c3)c2n1)c1c(Cl)cncc1Cl [Example 54, (R)-4-(2-(4-(5-(1-(3,5-dichloropyridin-4-yl)ethoxy)-1H-pyrazolo[4,3-b]pyridin-3-yl)-1H-pyrazol-1-yl)ethyl)-1-methylpiperazin-2-one] | 1 to 10 nM | < 1 nM | A (A represents 1 ≤ multiple X<20) | 1.2 nM | 147 X |  |  |  |  |  |  | 
12 | CC(Oc1ccc2[nH]nc(-c3cnn(C)c3)c2c1)c1c(CF)ccc2ncccc12 (stereo not drawn) [Example 130, 6-(fluoromethyl)-5-(1-((3-(1-methyl-1H-pyrazol-4-yl)-1H-indazol-5-yl)oxy)ethyl)q uinoline] | 10 to 100 nM |  |  | 12.9 nM |  |  |  | 152 nM |  |  |  | 
